Patent US10166218B2, “3-(1H-indol-2-yl)-1H-pyrazolo[3,4-C]pyridines and therapeutic uses thereof” (Samumed, LLC, priority 2015, dated 2019)

Key:
Assay type in all cases: cell-based
SW480 colon cancer cells = assay: Cell viability assay (CellTiter-Blue) in SW480 colon cancer cells; conditions: Homo sapiens, 96 h, four days, CellTiter-Blue
In short: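 SW480 colon cancer cells (~2×10^3/well) exposed to 8-point 1:3 dilutions from 10 μM to 0.0045 μM for four days at 37 °C/5% CO2. Viability read by resazurin (CellTiter-Blue) fluorescence after ~3 h, Ex 560/Em 590 nm. EC50 from non-linear regression; percent inhibition at 10 μM given when EC50 >10 μM.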

[1] = test system: primary human fibroblasts derived from IPF patients (LL29 cells) treated with TGF-β1; α-smooth muscle actin (αSMA); assay: Inhibition of the fibrotic process: αSMA staining in TGF-β1 treated primary human fibroblasts from IPF patients (LL29 cells); conditions: Fibroblast, 96 h, TGF-β1 20 ng/mL, 4 days, % cells positive for αSMA
In short: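 LL29 IPF-patient lung fibroblasts in 1% FBS F12 were given compounds (11-point, 10 μM to […], 0.1% DMSO) plus TGF-β1 20 ng/mL for 4 days at 37 °C. αSMA-positive fraction of live (SYTOX-negative) cells was imaged and normalized to TGF-β1/DMSO wells. EC50 by non-linear regression, or % inhibition at 10 μM if >10 μM.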

IL-6 (THP-1 cells) = assay: Inhibition of IL-6 in LPS-stimulated THP-1 human monocyte cells (HTRF); conditions: inhibition of IL-6 in LPS-stimulated THP-1 cells, HTRF, 10-point dose-response starting from 10 μM
In short: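 THP-1 cells, serum-reduced (1% FBS) for 24 h, were preincubated with compound (10-point 1:3 series from 10 μM, 0.1% DMSO) for 2 h, then stimulated with 500 ng/mL LPS for 22 h at 37° C. IL-6 was read by HTRF (665/620 nm ratio) and normalized to DMSO. EC50 from four-parameter fit; % inhibition at 10 μM given if EC50 >10 μM.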

[2] = test system: Wnt activity (Sp5-Luc reporter, TCF/LEF binding sites) in SW480 colon carcinoma cells; assay: Screening assay for Wnt activity: Sp5-Luc reporter gene assay in stably transduced SW480 cells; conditions: Homo sapiens, overnight incubation
In short: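 Luminescence (BrightGlo) was normalised to DMSO-only wells and fitted with a four-parameter variable-slope model for EC50; beyond 10 μM, % inhibition at 10 μM is given. Stable Sp5-Luc SW480 reporter cells, 4,000/well in 1% FBS, were exposed overnight at 37 °C to compounds, top 10 μM, 1:3 dilutions, 0.1% DMSO.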

Row | Structure (SMILES) | EC50 (SW480 colon cancer cells) [µM] | EC50 [1] [µM] | EC50 (IL-6 (THP-1 cells)) [µM] | EC50 [2] [µM]
1 | CN1CCN(c2cccc3[nH]c(-c4n[nH]c5cnc(-c6cncc(NC(=O)Cc7ccccc7)c6)cc45)cc23)CC1 [Compound 234, N-(5-(3-(4-(4-Methylpiperazin-1-yl)-H-indol-2-yl)-1H-pyrazolo[3,4-c]pyridin-5-yl)pyridin-3-yl)-2-phenylacetamide] | 3.13 | 1.25 | 1.94 | 1.04
2 | CN(C)c1cncc(-c2cc3c(-c4cc5c(-c6cccs6)cccc5[nH]4)n[nH]c3cn2)c1 [Compound 343, N,N-Dimethyl-5-(3-(4-(thiophen-2-yl)-1H-indol-2-yl)-1H-pyrazolo[3,4-c]pyridin-5-yl)pyridin-3-amine] | 0.696 | 0.134 | 7.75 | 1.13
3 | CN(C)CCNc1cc(F)cc(-c2cccc3[nH]c(-c4n[nH]c5cnc(-c6cncc(NC(=O)Cc7ccccc7)c6)cc45)cc23)c1 [Compound 458, N-(5-(3-(4-(3-((2-(Dimethylamino)ethyl)amino)-5-fluorophenyl)-1H-indol-2-yl)-1H-pyrazolo[3,4-c]pyridin-5-yl)pyridin-3-yl)-2-phenylacetamide] | 4.55 | 2.84 | 3.3 | 3.59
4 | CCCC(=O)Nc1cncc(-c2cc3c(-c4cc5c(-c6cccs6)cccc5[nH]4)n[nH]c3cn2)c1 [Compound 353, N-(5-(3-(4-(Thiophen-2-yl)-1H-indol-2-yl)-1H-pyrazolo[3,4-c]pyridin-5-yl)pyridin-3-yl)butyramide] | 4.01 | 0.056 | 1.89 | 4.91
5 | CC(C)(C)C(=O)Nc1cncc(-c2cc3c(-c4cc5c(N6CCCCC6)cccc5[nH]4)n[nH]c3cn2)c1 [Compound 176, N-(5-(3-(4-(Piperidin-1-yl)-1H-indol-2-yl)-1H-pyrazolo[3,4-c]pyridin-5-yl)pyridin-3-yl)pivalamide] | 7.14 | 0.7 | 8.89 | 3.04
6 | CC(C)(C)CC(=O)Nc1cncc(-c2cc3c(-c4cc5c(-c6ccccc6F)cccc5[nH]4)n[nH]c3cn2)c1 [Compound 72, N-(5-(3-(4-(2-Fluorophenyl)-1H-indol-2-yl)-1H-pyrazolo[3,4-c]pyridin-5-yl)pyridin-3-yl)-3,3-dimethylbutanamide] | 4.43 | 0.701 | 3.21 | 1.71
7 | CS(=O)(=O)NCc1cc(F)cc(-c2cccc3[nH]c(-c4n[nH]c5cnc(-c6cncc(NC(=O)C7CCCCC7)c6)cc45)cc23)c1 [Compound 499, N-(5-(3-(4-(3-Fluoro-5-(methylsulfonamidomethyl)phenyl)-1H-indol-2-yl)-1H-pyrazolo[3,4-c]pyridin-5-yl)pyridin-3-yl)cyclohexanecarboxamide] | 4.54 | 4.79 | 1.79 | 1.76
8 | FC1(F)CCN(Cc2cncc(-c3cc4c(-c5cc6c(-c7cccnc7)cccc6[nH]5)n[nH]c4cn3)c2)C1 [Compound 110, 5-(5-((3,3-Difluoropyrrolidin-1-yl)methyl)pyridin-3-yl)-3-(4-(pyridin-3-yl)-1H-indol-2-yl)-1H-pyrazolo[3,4-c]pyridine] | 1.07 | 0.081 | 0.422 | 0.137
